The source made the active and inactive calls.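 Rule for the calls: active = fitted curve reaching 40% activation at or below the top valid dose tested; inconclusive = flat curve at 30 to 70% activation, or poor fit; inactive = the rest.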 Where only a bound is given, the exact number is not on record here.

In PubChem BioAssay AID540258 (Broad Institute, 2011) one finds AC40 data, which are given here for 113 molecules.

The assay relates to SK-MEL-5 TRPM1 promoter luciferase reporter, 24 h. The experiment in a line: MITF activators via TRPM1 promoter reporter, dose response, SK-MEL-5 cells, luciferase, cherry-pick samples (AID 540258).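 Note: potency for activators that raise TRPM1 promoter luciferase signal.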
For the molecule `COc1cc(/C=C/c2noc(-c3ccccc3O)n2)ccc1OC(C)=O`, the AC40 was 1.62 µM.

Turning to `Cc1ccc(-c2nn(-c3ccccc3)cc2/C=N/O)cc1`, the AC40 was 10.2 µM.

For `CC(C)(C)c1ccc(C(=O)NCc2ccccc2)cc1`, the AC40 is 8.05 µM.

In the case of `Brc1ccccc1-n1nnc(-c2nccs2)n1`, the AC40 is 2.52 µM.

For the molecule `COc1ccc(C2=NN(c3ccccc3)C(c3ccc(OC)c(OC)c3)C2)cc1` (stereo not drawn), the AC40 is 25.6 µM.

In the case of `CC(=O)c1ccc2oc3ccccc3c(=O)c2c1`, the AC40 was 10.1 µM.

For `N#Cc1ccc(NC(=O)c2cccs2)nc1`, the AC40 was 16.8 µM.

On to `CN(C)c1ccc(CSc2ccccc2)cc1`, for which the AC40 is 1.83 µM.

As for `c1ccc(SCc2nc(-c3ccccn3)no2)cc1`, the AC40 is 3.01 µM.

In the case of `COc1ccc(NC(=O)C2Cc3ccccc3O/C2=N\O)cc1` (stereo not drawn), the AC40 was 17 µM.

For the molecule `Cc1ccc2c(Cl)c(C(=O)Nc3cccnc3)sc2c1`, the AC40 is 1.19 µM.

`Fc1cc(Br)ccc1COc1ccc(-c2nnco2)cc1`: the AC40 is 3.08 µM.

For the molecule `COCc1ccc(-c2c(-c3ccc(OC)cc3)oc(=O)c3cc(OC)c(OC)cc23)cc1`, the AC40 was 3.05 µM.

In the case of `COc1ccc(NC(=O)c2ccc3c(c2)OCO3)cc1Cl`, the AC40 was 0.642 µM.

Take `Clc1ccc(-n2nnc(-c3cccnc3Cl)n2)cn1`: the AC40 was 3.3 µM.

As to `Fc1ccccc1COc1ccc(C(=S)N2CCCC2)cc1`, the AC40 was 4.34 µM.

`Clc1ccc(COn2nnc3ccccc32)c(Cl)c1`: the AC40 was 0.941 µM.

Consider `CCc1ccc(NC(=O)c2ccc3nc(N)sc3c2)cc1`, for which the AC40 is 5.39 µM.

`C/C(=N\OCc1ccc(C#N)cc1)c1ccc(S(=O)(=O)N(C)C)cc1`: the AC40 is > 35 µM (inactive).

For `CC(=O)c1sc(NC(=O)c2ccccc2F)nc1-c1ccccc1`, the AC40 was 3.02 µM.

On to `C=CCSc1nncn1/N=C/c1ccc(OC)cc1`, for which the AC40 was 1.41 µM.

For the molecule `CCN(CC)C(=O)OCc1c(-c2ccccc2)ncc2ccccc12`, the AC40 is 11.9 µM.

Consider `O=c1c(-c2ccc(O)cc2)coc2cc(O)cc(O)c12`, for which the AC40 is 4.48 µM.

Regarding `CC(=O)c1cnc2c(-c3cccc(Br)c3)cnn2c1C`, the AC40 was 13.2 µM.

Consider `CSc1cccc(NC(=O)c2cnn3ccccc23)c1`, for which the AC40 was 1.03 µM.

As for `O=C(NCc1ccccn1)Nc1ccc(Br)cc1Cl`, the AC40 is 14.3 µM.

Regarding `CCN(CC)C(=O)c1cc2sc3ccccc3c2s1`, the AC40 was 2.42 µM.

Take `CCc1ccc(NC(=O)c2cc(-c3cccs3)on2)cc1`: the AC40 is 12.3 µM.

Regarding `CCCNC(=O)Nc1nc2ccccc2s1`, the AC40 is 0.513 µM.

`CCCCNc1c(-c2ccc(-c3cccc(Cl)c3)cc2)nc2ccccn12`: the AC40 was 5.54 µM.

Consider `C/C(=N\O)c1ccc(N2C(=O)C3CC=C(Cl)CC3C2=O)cc1` (stereo not drawn), for which the AC40 is 3.5 µM.

For `Cc1cccc2c1-c1sc(C(=O)N3CCCCC3)cc1CO2`, the AC40 was 2.7 µM.

As for `Nc1c(-c2ccc(Cl)cc2)cnn1-c1ccccc1`, the AC40 is 1.84 µM.

Consider `Cc1cccc(OC(=O)c2sc3ncn(C)c(=O)c3c2C)c1`, for which the AC40 was 6.16 µM.

As to `O=C(Nc1cccnc1)c1cc(-c2ccc(Cl)cc2)on1`, the AC40 is 15.3 µM.

As for `COc1ccccc1C(=O)NCCC(=O)NC1CCC(C)CC1` (stereo not drawn), the AC40 is 3.62 µM.

Consider `C#CCSc1nnc(-c2ccc(O)cc2)o1`, for which the AC40 is 9.52 µM.

With `Cc1ccc(O)c(C2=Nc3ccccc3C2(C)C)c1`, the AC40 is 8.51 µM.

For `O=S(=O)(c1ccccc1)n1ccc(-c2cnc(-c3ccccc3)s2)n1`, the AC40 was 7.87 µM.

Consider `CCn1cnc2cc(NCc3ccccc3Cl)ccc21`, for which the AC40 was 14.6 µM.

On to `CCSc1nnc(NC(=O)NC2CCCCC2)s1`, for which the AC40 was > 35 µM (inactive).

For the molecule `CN(c1ccc(O)cc1)c1nc(O)c(C2=c3ccccc3=NC2=O)s1`, the AC40 was 8.06 µM.

With `COc1ccccc1/C=C/C=N/n1c(-c2ccccn2)n[nH]c1=S`, the AC40 was 13.5 µM.

Take `Cn1cccc1C(=O)C(=O)Nc1ccc(F)c(F)c1`: the AC40 is 0.855 µM.

For the molecule `CC(C)(C)C(=O)N1CCN(c2nc3ccccc3s2)CC1`, the AC40 is 1.86 µM.

Regarding `COc1ccc(-c2nnc(SCc3ccccc3)n2N)cc1`, the AC40 was 5.97 µM.

For `Nc1ccc(-c2nc3ncccc3o2)c(O)c1`, the AC40 was 5.79 µM.

In the case of `Cc1cccc(C(=O)Oc2ccc(/C=N/O)cc2)c1`, the AC40 was 2.74 µM.

As for `CN(CC(=O)Nc1ccccc1Br)C(=O)c1cc2c(s1)CCCCC2`, the AC40 was 3.4 µM.

`Clc1ccc(-c2nnc(CCc3ccccc3)o2)c(Cl)c1`: the AC40 is 2.55 µM.

On to `Oc1[nH]c2ccccc2c1C=Nc1ccccc1`, for which the AC40 was 5.55 µM.

For the molecule `COc1ccc(Nc2nc(N)c3ccccc3n2)c(OC)c1`, the AC40 is 2.4 µM.

`CC(=O)c1sc(NC(=O)c2ccc3c(c2)OCO3)nc1C`: the AC40 is 1.39 µM.

On to `Cc1[nH]n(-c2cccc(Cl)c2)c(=O)c1C=NCC(C)C`, for which the AC40 is 5.25 µM.

As to `c1ccc2c(c1)NC1(CCCC1)n1c-2nc2ccccc21`, the AC40 is 11.3 µM.

On to `O=C1c2ccccc2NC(c2cccc(Cl)c2)N1N=C1CCCCCC1` (stereo not drawn), for which the AC40 was > 35 µM (inactive).

As to `Nc1ccccc1C#Cc1ccccc1`, the AC40 was 0.777 µM.

Take `O=C(NOCc1ccccc1)OCc1ccccc1`: the AC40 was 6.91 µM.

As for `CC(C)C[C@@H](CSc1ccccc1)N1CCN(CC(C)C)CCC1=O`, the AC40 is 4.58 µM.

Consider `Cc1ccc(N(O)C(=O)NCCCCNC(=O)N(O)c2ccc(C)cc2)cc1`, for which the AC40 is 15.5 µM.

On to `Clc1ccccc1/C=C/c1nc(-c2cccnc2)no1`, for which the AC40 was 1.2 µM.

As to `Cc1ccc(-c2noc(C3CCCCC3)n2)cc1`, the AC40 was 1.68 µM.

Consider `CCc1ccc(C(=O)NC2CCCCC2)s1`, for which the AC40 was 2.95 µM.

On to `O=C(Nc1ccccc1)Nc1ccc2nnsc2c1`, for which the AC40 is 13.1 µM.

For `CCc1nc(NC(C)(C)C)c2cnn(-c3ccccc3)c2n1`, the AC40 is 6.25 µM.

`CC(C)(C)c1cc(NC(=O)Nc2ccccc2)no1`: the AC40 is 0.864 µM.

As to `O=C(c1cccs1)N1CCn2c1nc1ccccc12`, the AC40 is 4.69 µM.

In the case of `Cn1c(NC(=O)CCC2CCCCC2)cc(=O)n(C)c1=O`, the AC40 was 1.49 µM.

Regarding `c1csc(CSc2nc3ccccc3s2)c1`, the AC40 is 1.09 µM.

For the molecule `O=C(CC(Nc1ccccc1)C(=O)O)c1ccccc1` (stereo not drawn), the AC40 is 0.749 µM.

Turning to `c1ccc(Nc2ccc(Nc3ccccc3)cc2)cc1`, the AC40 is 23.7 µM.

On to `Cc1ccc(NCC(=O)c2ccc(C)cc2)cc1`, for which the AC40 is 9.65 µM.

Take `C/C(=N/NC(=O)c1ccncc1)c1ccc(NC(=O)c2ccc(Cl)cc2Cl)cc1`: the AC40 was > 35 µM (inactive).

For `Cc1ccc(Nc2ncnc3ccccc23)cc1`, the AC40 is 2.23 µM.

For `COc1cc(OC)cc(-c2cc3cc(F)ccc3cn2)c1`, the AC40 was 1.71 µM.

Turning to `CC(=O)c1ccc(NC(=O)Nc2ccc3c(c2)nc(C)n3C)cc1`, the AC40 was 31.2 µM.

Take `Cc1ccc(NC(=O)CCCc2ccccc2)nc1`: the AC40 is 5.72 µM.

For `COc1ccc(-c2nn(-c3ccccc3)cc2C#N)cc1`, the AC40 was 3.24 µM.

Consider `COc1ccccc1-c1cnn2c(NC3CCCC3)cc(C)nc12`, for which the AC40 is 4.09 µM.

Take `FC(F)Oc1ccc(N=C2SCC3CCCCN23)cc1` (stereo not drawn): the AC40 is 2.53 µM.

On to `C/C(Cl)=C/CSc1nn2c(=O)c3ccccc3nc2s1`, for which the AC40 is 13 µM.

Take `Cc1ccc(C(=O)NCCc2ccc(F)cc2)s1`: the AC40 was 0.245 µM.

Consider `CCN(CC)c1ccc(-c2nc3cnccc3n2C)cc1`, for which the AC40 is 1.64 µM.

As to `Brc1csc(/C=N/Nc2nc3ccccc3s2)c1`, the AC40 is 0.667 µM.

Take `CCC(=O)Nc1sc(C(=O)Nc2ccccc2F)c(C)c1C(=O)OC`: the AC40 is 0.568 µM.

Turning to `CCn1c(C)nc2cc(C(=O)N/N=C(\C)c3ccccc3O)ccc21`, the AC40 is 3.48 µM.

Consider `COc1ccc(-c2cn3nc(C)c(C)nc3n2)cc1OC`, for which the AC40 was 5.89 µM.

With `COC(=O)c1cn(CC(=O)NCc2cccs2)c2ccccc12`, the AC40 was 9.32 µM.

As to `Cn1c(SCc2c(F)cccc2Cl)nnc1-c1cnccn1`, the AC40 is 6.16 µM.

`Cc1cc(NC(=O)Nc2ccc3c(ccn3C)c2)sn1`: the AC40 was 7.89 µM.

With `CCc1ccc(NC(=O)c2n[nH]c(=O)c3ccccc23)cc1`, the AC40 was 1.1 µM.

Turning to `O=C(Cn1c(/C=C/c2ccccc2)nc2ccccc21)Nc1ccc(F)cc1`, the AC40 is 6.45 µM.

`CCn1c(COc2ccccc2C)nc2ccccc21`: the AC40 is 9.77 µM.

Turning to `COc1cccc(NC(=O)C(=O)NCCC2CCCCN2S(=O)(=O)c2cccs2)c1` (stereo not drawn), the AC40 is 4.24 µM.

`Cc1cc(NC(=O)c2ccc(Cl)cc2)no1`: the AC40 was 2.63 µM.

Consider `O=C(Cc1ccc(O)cc1)NC1CCCCCC1`, for which the AC40 was 10.6 µM.

For the molecule `Cc1ccc(C)c(NC(=O)c2cc(-c3cc(C)ccc3O)n[nH]2)c1`, the AC40 was 3.03 µM.

Regarding `CCC(=O)c1ccc(OCc2ccccc2)c(OC)c1`, the AC40 was 2.57 µM.

For the molecule `COc1ccc(NC(=O)n2ncc3cc(Cl)ccc32)cc1OC`, the AC40 was 5.31 µM.

For the molecule `Cn1cccc1C(=O)N/N=C/c1c(Cl)cccc1Cl`, the AC40 is 1.47 µM.

Take `CCS(=O)(=O)N1CCN(c2nc(-c3ccccc3)cs2)CC1`: the AC40 was 33.3 µM.

As for `C(=N\Nc1nc2ccccc2[nH]1)/c1c[nH]c2ccccc12`, the AC40 was 5.09 µM.

For the molecule `O=C(N/N=C/c1ccccn1)c1c[nH]c2ccccc12`, the AC40 was 6.49 µM.

In the case of `CC(NS(=O)(=O)c1cccc(Cl)c1)C(=O)Nc1ccc(-c2nc3ccccc3s2)cc1` (stereo not drawn), the AC40 was 6.96 µM.

As to `COC(=O)c1cc(-c2ccc(OC)cc2)n[nH]1`, the AC40 is 6.21 µM.

In the case of `COc1ccc(/C=N/Nc2ccccn2)cc1O`, the AC40 is 3.01 µM.

With `COc1ccc(NC(=O)c2ccc3[nH]c(C)c(C)c3c2)cc1`, the AC40 is 22.4 µM.

For `CN1C(=O)NC(=O)C(C)(C2=CCCCC2)C1=O` (stereo not drawn), the AC40 was > 35 µM (inactive).

Turning to `COc1ccc(C(=O)c2ccc(CC#N)s2)cc1`, the AC40 is 7.07 µM.

For `CC/C(=N\NC(=O)c1csc(C)c1C)c1cccs1`, the AC40 is 0.733 µM.

Take `CC(C)(C)C(=O)OCc1nc(-c2ccc(F)cc2)cs1`: the AC40 is 11.3 µM.

For the molecule `NNC(=O)c1ccc2nc(-c3ccc(Br)cc3)cn2c1`, the AC40 is 11.3 µM.

On to `Oc1oc(-c2ccccc2)nc1C=NCc1ccccc1`, for which the AC40 was 11.3 µM.
